{"source": "paper PMC5224920", "about": "“Assessing the mechanism and therapeutic potential of modulators of the human Mediator complex-associated protein kinases” (eLife, 2016)", "system": "12 single or co-culture in vitro tissue models of primary cells", "assay": "Culture/co-culture cell model panel, extracellular biomarkers (DiscoveRx); as to CCL2/MCP-1: reference of the scale not given here; as to CD38: reference of the scale not given here; as to CD40: reference of the scale not given here; as to CD69: reference of the scale not given here; as to CXCL8/IL-8: reference of the scale not given here; as to CXCL9/MIG: reference of the scale not given here; as to IL-1alpha: reference of the scale not given here; as to M-CSF: reference of the scale not given here; as to PBMC Cytotoxicity: reference of the scale not given here", "assay_type": "cell-based, human", "key": {"[1]": {"details": "/Mphg Huvec+macrophages, 1.00E0 nM"}, "[2]": {"details": "/Mphg Huvec+macrophages, 1.00E1 nM"}, "[3]": {"details": "/Mphg Huvec+macrophages, 1.00E2 nM"}, "[4]": {"details": "/Mphg Huvec+macrophages, 1.00E3 nM"}, "[5]": {"details": "/Mphg Huvec+macrophages, 1.00E4 nM"}}}
{"smiles": "CN1c2ccc(-c3cncc(Cl)c3N3CCC4(CC3)CNC(=O)O4)cc2CS1(=O)=O", "note": "[CMPD2]", "values": [{"measurement": "Collagen III", "setting": "/HDFNo, 1.00E3 nM", "value": 0.037}, {"measurement": "CCL2/MCP-1", "setting": "/HDFNo, 1.00E4 nM", "value": 0.068}, {"measurement": "CD54/ICAM-1", "setting": "/HDFNo, 1.00E4 nM", "value": 0.057}, {"measurement": "CD106/VCAM-1", "setting": "/HDFNo, 1.00E4 nM", "value": 0.067}, {"measurement": "Collagen I", "setting": "/HDFNo, 1.00E4 nM", "value": 0.071}, {"measurement": "Collagen III", "setting": "/HDFNo, 1.00E4 nM", "value": 0.073}, {"measurement": "CCL2/MCP-1", "setting": "[1]", "value": 0.022}, {"measurement": "CCL3/MIP-1alpha", "setting": "[1]", "value": 0.000424}, {"measurement": "CD40", "setting": "[1]", "value": 0.00851}, {"measurement": "CD69", "setting": "[1]", "value": 0.038}, {"measurement": "CD106/VCAM-1", "setting": "[1]", "value": 0.069}, {"measurement": "CXCL8/IL-8", "setting": "[1]", "value": 0.053}, {"measurement": "IL-1alpha", "setting": "[1]", "value": 0.041}, {"measurement": "M-CSF", "setting": "[1]", "value": -0.019}, {"measurement": "SRB", "setting": "[1]", "value": -0.007}, {"measurement": "SRB-Mphg", "setting": "[1]", "value": 0.018}, {"measurement": "sIL-10", "setting": "[1]", "value": 0.074}, {"measurement": "CCL2/MCP-1", "setting": "[2]", "value": -0.032}, {"measurement": "CCL3/MIP-1alpha", "setting": "[2]", "value": -0.016}, {"measurement": "CD40", "setting": "[2]", "value": -0.000836}, {"measurement": "CD69", "setting": "[2]", "value": 0.026}, {"measurement": "CD106/VCAM-1", "setting": "[2]", "value": 0.052}, {"measurement": "CXCL8/IL-8", "setting": "[2]", "value": -0.00092}, {"measurement": "IL-1alpha", "setting": "[2]", "value": 0.023}, {"measurement": "M-CSF", "setting": "[2]", "value": -0.033}, {"measurement": "SRB", "setting": "[2]", "value": -0.013}, {"measurement": "SRB-Mphg", "setting": "[2]", "value": 0.006}, {"measurement": "sIL-10", "setting": "[2]", "value": 0.045}, {"measurement": "CCL2/MCP-1", "setting": "[3]", "value": -0.044}, {"measurement": "CCL3/MIP-1alpha", "setting": "[3]", "value": -0.018}, {"measurement": "CD40", "setting": "[3]", "value": 0.014}, {"measurement": "CD69", "setting": "[3]", "value": -0.029}, {"measurement": "CD106/VCAM-1", "setting": "[3]", "value": 0.050}, {"measurement": "CXCL8/IL-8", "setting": "[3]", "value": 0.00849}, {"measurement": "IL-1alpha", "setting": "[3]", "value": 0.033}, {"measurement": "M-CSF", "setting": "[3]", "value": -0.037}, {"measurement": "SRB", "setting": "[3]", "value": -0.017}, {"measurement": "SRB-Mphg", "setting": "[3]", "value": 0.018}, {"measurement": "sIL-10", "setting": "[3]", "value": -0.065}, {"measurement": "CCL2/MCP-1", "setting": "[4]", "value": -0.085}, {"measurement": "CCL3/MIP-1alpha", "setting": "[4]", "value": -0.034}, {"measurement": "CD40", "setting": "[4]", "value": 0.00225}, {"measurement": "CD69", "setting": "[4]", "value": 0.036}, {"measurement": "CD106/VCAM-1", "setting": "[4]", "value": 0.021}, {"measurement": "CXCL8/IL-8", "setting": "[4]", "value": 0.012}, {"measurement": "IL-1alpha", "setting": "[4]", "value": 0.019}, {"measurement": "M-CSF", "setting": "[4]", "value": -0.046}, {"measurement": "SRB", "setting": "[4]", "value": -0.017}, {"measurement": "SRB-Mphg", "setting": "[4]", "value": 0.008}, {"measurement": "sIL-10", "setting": "[4]", "value": -0.137}, {"measurement": "CCL2/MCP-1", "setting": "[5]", "value": -0.107}, {"measurement": "CCL3/MIP-1alpha", "setting": "[5]", "value": -0.064}, {"measurement": "CD40", "setting": "[5]", "value": -0.00011}, {"measurement": "CD69", "setting": "[5]", "value": 0.061}, {"measurement": "CD106/VCAM-1", "setting": "[5]", "value": 0.027}, {"measurement": "CXCL8/IL-8", "setting": "[5]", "value": 0.023}, {"measurement": "IL-1alpha", "setting": "[5]", "value": 0.024}, {"measurement": "M-CSF", "setting": "[5]", "value": -0.054}, {"measurement": "SRB", "setting": "[5]", "value": -0.021}, {"measurement": "SRB-Mphg", "setting": "[5]", "value": -0.007}, {"measurement": "sIL-10", "setting": "[5]", "value": -0.266}, {"measurement": "CCL2/MCP-1", "setting": "/TH2, 1.00E0 nM", "value": 0.046}, {"measurement": "CCL26/Eotaxin-3", "setting": "/TH2, 1.00E0 nM", "value": -0.081}, {"measurement": "CD38", "setting": "/TH2, 1.00E0 nM", "value": -0.015}, {"measurement": "CD40", "setting": "/TH2, 1.00E0 nM", "value": -0.063}, {"measurement": "CD69", "setting": "/TH2, 1.00E0 nM", "value": -0.031}, {"measurement": "CD87/uPAR", "setting": "/TH2, 1.00E0 nM", "value": -0.079}, {"measurement": "CD106/VCAM-1", "setting": "/TH2, 1.00E0 nM", "value": 0.031}, {"measurement": "CXCL8/IL-8", "setting": "/TH2, 1.00E0 nM", "value": 0.026}, {"measurement": "CXCL9/MIG", "setting": "/TH2, 1.00E0 nM", "value": 0.021}, {"measurement": "Collagen IV", "setting": "/TH2, 1.00E0 nM", "value": -0.017}, {"measurement": "PBMC Cytotoxicity", "setting": "/TH2, 1.00E0 nM", "value": -0.023}, {"measurement": "SRB", "setting": "/TH2, 1.00E0 nM", "value": -0.037}, {"measurement": "sIL-17A", "setting": "/TH2, 1.00E0 nM", "value": 0.106}, {"measurement": "sIL-17F", "setting": "/TH2, 1.00E0 nM", "value": -0.026}, {"measurement": "CCL2/MCP-1", "setting": "/TH2, 1.00E1 nM", "value": -0.013}, {"measurement": "CCL26/Eotaxin-3", "setting": "/TH2, 1.00E1 nM", "value": -0.160}, {"measurement": "CD38", "setting": "/TH2, 1.00E1 nM", "value": -0.040}, {"measurement": "CD40", "setting": "/TH2, 1.00E1 nM", "value": -0.104}, {"measurement": "CD69", "setting": "/TH2, 1.00E1 nM", "value": -0.024}, {"measurement": "CD87/uPAR", "setting": "/TH2, 1.00E1 nM", "value": -0.129}, {"measurement": "CD106/VCAM-1", "setting": "/TH2, 1.00E1 nM", "value": 0.033}, {"measurement": "CXCL8/IL-8", "setting": "/TH2, 1.00E1 nM", "value": -0.063}, {"measurement": "CXCL9/MIG", "setting": "/TH2, 1.00E1 nM", "value": 0.013}, {"measurement": "Collagen IV", "setting": "/TH2, 1.00E1 nM", "value": -0.009}, {"measurement": "PBMC Cytotoxicity", "setting": "/TH2, 1.00E1 nM", "value": -0.008}, {"measurement": "SRB", "setting": "/TH2, 1.00E1 nM", "value": -0.062}, {"measurement": "sIL-17A", "setting": "/TH2, 1.00E1 nM", "value": 0.100}, {"measurement": "sIL-17F", "setting": "/TH2, 1.00E1 nM", "value": -0.047}, {"measurement": "CCL2/MCP-1", "setting": "/TH2, 1.00E2 nM", "value": -0.044}, {"measurement": "CCL26/Eotaxin-3", "setting": "/TH2, 1.00E2 nM", "value": -0.160}, {"measurement": "CD38", "setting": "/TH2, 1.00E2 nM", "value": -0.008}, {"measurement": "CD40", "setting": "/TH2, 1.00E2 nM", "value": -0.119}, {"measurement": "CD69", "setting": "/TH2, 1.00E2 nM", "value": -0.012}, {"measurement": "CD87/uPAR", "setting": "/TH2, 1.00E2 nM", "value": -0.098}, {"measurement": "CD106/VCAM-1", "setting": "/TH2, 1.00E2 nM", "value": 0.035}, {"measurement": "CXCL8/IL-8", "setting": "/TH2, 1.00E2 nM", "value": -0.029}]}
